# Measurements from patent publication US12195490B2, “STRAD-binding agents and uses thereof” (The Regents of the University of California, priority 2020, dated 2025).
# Test system: ACHN cell line
# Assay: drug screen of the SelleckChem kinase inhibitor library with and without 5 uM SU-329, Cell-Titer Glo after 5 days
# Format: cell-based
# Details: kinase inhibitor at 200 nM with and without 5 uM SU329; ACHN cell line; 5 days; Cell-Titer Glo
row,Molecule,log2fc
1,CCOc1cc(C(=O)N2CCC(N3CCN(C)CC3)CC2)ccc1Nc1ncc2c(n1)N(C1CCCC1)c1ccccc1C(=O)N2C [ERK5-IN-1],0.1031
2,COc1cc2nccc(Oc3ccc(NC(=O)Nc4cc(C)on4)c(Cl)c3)c2cc1OC [Tivozanib (AV-951)],0.798
3,"Cc1c(CN2CCN(C(=O)[C@H](C)O)CC2)sc2c(N3CCOCC3)nc(-c3cnc(N)nc3)nc12 [Apitolisib (GDC-0980, RG7422)]",−0.658
4,Cn1cc(-c2ccc3nnc(C(F)(F)c4ccc5ncccc5c4)n3n2)cn1 [JNJ-38877605],0.02907
5,C=CC(=O)Nc1cc(Nc2nccc(-c3cn(C)c4ccccc34)n2)c(OC)cc1N(C)CCN(C)C [Osimertinib (AZD9291)],−0.01286
6,Cc1cc2c(F)c(Oc3ncnn4cc(OC[C@@H](C)O)c(C)c34)ccc2[nH]1 [Brivanib (BMS-540215)],0.1194
7,Cc1nc(NC(=O)N2CCC[C@H]2C(N)=O)sc1-c1ccnc(C(C)(C)C(F)(F)F)c1 [Alpelisib (BYL719)],−0.1349
8,CC1(COc2ccc3c(c2)ncn3-c2ccc3cccc(N4CCC(N)CC4)c3n2)COC1 [Crenolanib (CP-868596)],0.3666
9,O=c1cc(-c2cccc3c2Sc2ccccc2S3)oc(N2CCOCC2)c1 [KU-55933 (ATM Kinase Inhibitor)],0.3053
10,"C[C@@H]1CCN(C(=O)CC#N)C[C@@H]1N(C)c1ncnc2[nH]ccc12 [Tofacitinib (CP-690550, Tasocitinib)]",0.6421
11,Cc1[nH]nc2ccc(-c3cncc(OC[C@@H](N)Cc4ccccc4)c3)cc12 [A-674563],−0.6438
12,"C#Cc1cccc(Nc2ncnc3cc(OCCOC)c(OCCO)cc23)c1.Cl [OSI-420, desmethyl erlotinib, reference compound]",−0.04846
13,CCOC(=O)c1cnc2ccc(-c3cncc(NS(=O)(=O)c4ccccc4)c3)cn12 [HS-173],0.4717
14,CNC(=O)c1ccc(C)c(-n2c(C)cc(OCc3ccc(F)cc3F)c(Br)c2=O)c1 [PH-797804],−0.5678
15,CN1CC[C@H](c2c(O)cc(O)c3c(=O)cc(-c4ccccc4Cl)oc23)[C@H](O)C1 [Flavopiridol (Alvocidib)],1.05
16,O=C1NC(=O)/C(=C/c2ccc3c(c2)OC(F)(F)O3)S1 [AS-604850],0.4876
17,Cn1cc(C2=C(c3cn(C4CCN(Cc5ccccn5)CC4)c4ccccc34)C(=O)NC2=O)c2ccccc21 [Enzastaurin (LY317615)],0.5814
18,"CCN1CCN(Cc2ccc(-c3cc4c(N[C@H](C)c5ccccc5)ncnc4[nH]3)cc2)CC1 [AEE788 (NVP-AEE788), AEE788, reference compound]",0.07427
19,CCOc1cc2ncc(C#N)c(Nc3ccc(F)c(Cl)c3)c2cc1NC(=O)/C=C/CN(C)C [Pelitinib (EKB-569)],0.96
20,O=C1Nc2ccccc2/C1=C1/Nc2ccccc2C1=O [Indirubin],−1.247
21,Cc1nc(N)sc1-c1ccnc(Nc2ccc(N3CCOCC3)cc2)n1 [CYC116],−0.814
22,KX2-391,0.3892
23,Nc1ncnc2c1c(-c1cccc(OCc3ccccc3)c1)cn2C1CC(CN2CCC2)C1 (centres unmarked) [NVP-AEW541],0.2179
24,O=C1NC(=O)[C@@H](c2cn3c4c(cccc24)CCC3)[C@@H]1c1c[nH]c2ccccc12 [Tivantinib (ARQ 197)],0.2709
25,C=CCc1ccc(O)c(-c2ccc(O)c(CC=C)c2)c1 [Honokiol],0.09484
26,CN(c1ncccc1CNc1nc(Nc2ccc3c(c2)CC(=O)N3)ncc1C(F)(F)F)S(C)(=O)=O [PF-00562271],0.8274
27,"CNC(=O)c1cc(Oc2ccc(NC(=O)Nc3ccc(Cl)c(C(F)(F)F)c3)cc2)ccn1 [Sorafenib, sorafenib, reference compound]",0.2462
28,O=C1NC(=O)C(c2ccccc2[N+](=O)[O-])=C1Nc1ccc(O)c(Cl)c1 [SB415286],0.2736
29,Cc1nc(Nc2cnn(C3CCNCC3)c2)nc2c1N(C)C(=O)c1cc3ccccc3cc1N2C [HTH-01-015],0.3141
